{"source": "patent US20070270455A1", "about": "“INHIBITION OF NF-kB” (priority 2005, published 2007)", "key": {"[1]": {"system": "HT1080-sip53 and HT1080-siGFP cells", "assay": "Cell survival assay in isogenic cell pairs with anti-p53 or control siRNA", "assay_type": "cell-based, human", "conditions": "anti-p53 vs control siRNA; maximum difference in HT1080 cells"}, "HT1080ConALuc cells": {"system": "HT1080ConALuc cells", "assay": "p53-responsive luciferase reporter assay in HT1080 cells", "assay_type": "cell-based, human", "description": "(§1) Bars represent folds of p53 responsive reporter induction over untreated controls. Box represents western blot analysis of p53 expression in total protein lysates of both cells variants in basal and doxorubicin treated conditions (to evaluate basal and DNA-damage induced level of p53). […] Fold induction presented as fold of reporter activation over untreated control. […] Fold induction presented as fold of reporter activation over untreated control.\n(§2) For cotransfection set-up, 2×10^5 cells were plated into 6 well plates and, after overnight incubation, transfected with Lipofectamin Plus reagent (Gibco BRL) with 0.5 μg of reporter plasmids (p21-ConALuc or pNF-κBLuc) in combination with different concentrations of p53, Arf, Ss-IκB, or siHDM2 expressing plasmids. Corresponding empty vectors were added into all transfections up to 2 μg of total DNA amount. Normalization of transfection efficiency was done by adding 0.2 μg of pCMV-LacZ plasmid. Luciferase activity and β-galactosidase activity was measured in lysates prepared 48 hours after transfection with Cell Lysis Buffer (Promega) by luciferase assay system (Promega) or β-galactosidase enzyme system (Promega). Luminometric and colorimetric reactions were read on the Wallack 1420 plate reader (Perkin Elmer). Integrated reporter set-up. 2×10^4 of cells with integrated reporter were plated in 96 well plates. After overnights incubation chemical compounds or media from lentivirus producing cells were added. At different time points cell lysates were prepared using Reporter Lysis Buffer (Promega). Luciferase or β-galactosidase activity and protein concentration were measured in aliquots of cell lysates using standard kits (Promega, Luciferase and β-galactosidase assay systems, Biorad Protein Assay Kit)."}, "p53": {"system": "p53", "assay": "Western blot of p53 phosphorylation status in RCC45 cells", "assay_type": "cell-based", "conditions": "9AA 5 μM or dox 1 μM, 16 hours", "protocol": "(§3) Western blot analysis of total protein lysates was performed using antibodies against p53 (DO1) and against specific sites of phosphorylation in p53. […] HCT116 cells were treated for 30 minutes with 1 μM PS-341. PS-341 was washed off after 30 minutes and cells were re-incubated in drug free medium prior to analysis at 3 hours or 16 hours post-treatment. […] Proteasome activity was determined by measuring the absorbance of free AMC generated by cleavage of an AMC-fluorogenic peptide. The proteasome activity of untreated cells was set at 100%. […] Cell lysates were isolated at the indicated hours after treatment and used for western blotting. […]\n(§4) Cells were lysed in RIPA buffer (25 mM Tris HCl, pH7.2, 125 mM NaCl, 1% NP40, 1% sodium deoxycholate, 1 mM EDTA) containing 1 mM PMSF (Sigma), 10 μg/ml of aprotinin (Sigma) and 10 μg/ml of leupeptin (Sigma). Protein concentrations were determined with BioRad Dc protein assay kit. […] The following antibodies were used: anti-p53—monoclonal mouse DO1 (Santa-Cruz), anti-p21—monoclonal mouse F-5 (Santa-Cruz), anti-mdm2—monoclonal mouse SMP14 (Santa-Cruz). p53 phosphorylation status was analyzed using phospho-p53 sampler kit from Cell signaling according to manufacturer's recommendations, anti-p65—(C20, Santa Cruz), anti-phospho-p65—(ser536, Cell Signaling), anti-IκBa—(C21, Santa Cruz), anti-p50—(NLS, Santa Cruz). […]"}, "RCC cell lines": {"system": "RCC cell lines", "assay": "Restoration of p53-mediated transactivation in RCC cell lines", "assay_type": "cell-based", "conditions": "data not shown"}, "MCF7ConALacZ cells": {"system": "MCF7ConALacZ cells", "assay": "p53-responsive reporter assay in MCF7 cells", "assay_type": "cell-based", "conditions": "compared with doxorubicin", "description": "as §1\nas §2, with “Normalization of transfection efficiency was done by adding 0.2 μg of pCMV-LacZ plasmid.” left out, “Integrated reporter set-up. 2×10^4 of cells with integrated reporter were plated in 96 well plates. After overnights incubation chemical compounds or media from lentivirus producing cells were added. At different time points cell lysates were prepared using Reporter Lysis Buffer (Promega).” left out"}, "HT1080ConALuC tumors": {"system": "HT1080ConALuC tumors", "assay": "p53-dependent luciferase reporter in xenograft tumors", "assay_type": "in vivo", "conditions": "intraperitoneal; 24 hours; nude mice", "protocol": "HT1080ConALuC cells were inoculated into two flanks of nude mice. When tumors reach 5 mm in diameter, mice were injected intraperitoneally with indicated concentrations of the drugs (mg/kg, 3 mice per group). After 24 hours mice were sacrificed, tumors were isolated, lysed in Reporter Lysis Reagent (Promega) and luciferase activity was measured in […] of tumor proteins. Bars represent fold of induction of luciferase activity in tumors, treated with drugs over luciferase activity in tumors treated with vehicle. FIG. 5B: HT1080sip53 or HT1080siGFP cells were inoculated in the left and right flank of nude mice respectively.\nNIH Swiss athymic nude, male mice, 5-6 weeks old were purchased from Harlan. 5×10^6 of tumor cells were inoculated into the flank of mice in 100 μL of PBS. […] As vehicle, 50% DMSO solution in PBS was used. Tumor size was measured in three dimensions every other day.\nThe in vivo anti-tumor effects of aminoacridines were tested in a xenograft tumor model using HT1080 cells differing in their p53 status and carrying p53 luciferase reporters grown subcutaneously in nude mice."}, "[2]": {"system": "HT1080 sip53 or HT1080 siGFP cells", "assay": "Cell cycle analysis", "assay_type": "cell-based, human"}, "RCC54": {"system": "RCC54", "assay": "Global gene expression profile by microarray hybridization, RCC54", "assay_type": "cell-based", "conditions": "36847 genes; at least in one dose (2 μM, 10 μM) in both cell lines RCC45 and RCC54; 16 hours", "protocol": "RNA was isolated after 16 hours of treatment that was enough to induce p53 but before appearance of signs of cell death. Among the 36847 genes represented on the array, only 0.6% changed their mRNA abundance by at least a factor of 2 at least in one dose in both cell lines."}, "H1299-NF-kBLuc cells": {"system": "H1299-NF-kBLuc cells", "assay": "NF-κB-responsive luciferase reporter assay", "assay_type": "cell-based"}, "[3]": {"system": "normal kidney epithelial cells and human diploid fibroblasts WI38", "assay": "Cell survival assay in normal cells", "assay_type": "cell-based", "protocol": "The same experiment as described in FIG. 4A was performed with NKE, RCC45, RCC54 and ACHN cells.\n5×10^3 of cells were plated in 6 well plates and treated with different concentrations of drugs for 24 hours. Then fresh drug-free medium was added. Number of colonies was estimated after 5-6 days of incubation. Cell survival was estimated as a percentage of intensity of methylene blue staining of treated cells, comparing with untreated control (methylene blue from stained colonies was extracted by 0.1% of SDS and quantitated spectrophotometrically)."}, "IκB": {"system": "IκB", "assay": "Western blot of IκB level and phosphorylation", "assay_type": "cell-based", "conditions": "PC-3 cells, 10 μM; MCF7 cells", "protocol": "as §3, §4"}, "p53 null H1299 cells": {"system": "p53 null H1299 cells", "assay": "p53-responsive reporter assay in p53 null cells", "assay_type": "cell-based", "description": "as §1\nas §2, with “Normalization of transfection efficiency was done by adding 0.2 μg of pCMV-LacZ plasmid.” left out, “Integrated reporter set-up. 2×10^4 of cells with integrated reporter were plated in 96 well plates. After overnights incubation chemical compounds or media from lentivirus producing cells were added. At different time points cell lysates were prepared using Reporter Lysis Buffer (Promega).” left out"}, "[4]": {"conditions": "after treatment with the drug, FIG. 3f"}}, "data": [{"smiles": "Nc1c2ccccc2nc2ccccc12", "note": "[9AA, 9-aminoacridine]", "values": [{"measurement": "toxicity in cells differing in p53 status", "setting": "[1]", "result": "less toxic to the cells with reduced p53 expression"}, {"measurement": "concentration at which p53 was activated", "setting": "HT1080ConALuc cells; HT1080ConALuc cells, 24 hours", "result": "≥ 1", "unit": "µM"}, {"measurement": "time at which p53-dependent transactivation becomes detectable", "setting": "HT1080ConALuc cells; [4]", "result": 12, "unit": "h"}, {"measurement": "time at which p53-dependent transactivation reaches maximum", "setting": "HT1080ConALuc cells; [4]", "result": "around 36 hours"}, {"measurement": "p53 phosphorylation status", "setting": "p53", "result": "did not affect"}, {"measurement": "RCC cell lines with restored p53-mediated transactivation", "setting": "RCC cell lines", "result": "9 out of 10"}, {"measurement": "induction of p53 reporter and p53-responsive genes (in words)", "setting": "MCF7ConALacZ cells", "result": "weaker than that of doxorubicin"}, {"measurement": "activation of p53 in tumors", "setting": "HT1080ConALuC tumors", "result": "capable of activating p53 in tumors"}, {"measurement": "effect on cell cycle", "setting": "[2]; 3 μM", "result": "p53-dependent growth arrest"}, {"measurement": "effect on cell cycle", "setting": "[2]; 20 μM", "result": "apoptosis"}, {"measurement": "genes that changed mRNA abundance by at least a factor of 2", "setting": "RCC54", "result": 0.6, "unit": "%"}, {"measurement": "TSA-stimulated NF-κB-dependent transcription", "setting": "H1299-NF-kBLuc cells; 100 nM TSA", "result": "could not be blocked"}, {"measurement": "NF-κB-responsive reporter activity", "setting": "H1299-NF-kBLuc cells; basal and TNF-induced (10 ng/ml)", "result": "inhibited basal and TNF-induced activity of the reporter"}, {"measurement": "sensitivity of normal cells compared with RCC and other tumor cells", "setting": "[3]", "result": "more resistant to 9AA"}, {"measurement": "level of IκB", "setting": "IκB", "result": "gradual decrease followed by complete disappearance of IκB"}, {"measurement": "stimulation of p53 reporter activity", "setting": "p53 null H1299 cells", "result": "no stimulation of reporter activity"}]}]}
